The values below come from patent US20260183283A1 (priority 2022, published 2026).

Broadly, the clearance is a measure of how efficiently the substance is removed, as volume per time. A lower clearance goes with inefficient removal. One may read the bioavailability as dose-corrected exposure relative to a reference, in per cent. Lower therefore signals poor availability. In general, half-life refers to how long it takes for the measured level to halve.

The subject of data set [1] is Pank1,2 neural knockout mice. Description: Body weight of Pank1,2 neural knockout mice. Type of data set: in vivo. Conditions: 75 ppm in chow from postnatal day 14. The text has this:
(§1) Water was supplied ad libitum. Mice were maintained on a chow diet with purified ingredients containing 19% kcal protein, 66.5% kcal carbohydrate and 14.4% kcal fat (Envigo #TD170542) which was similar to standard rodent chow (LabDiet #5013). The mice were randomized into the treatment arms. […] However, this is an approximation, as SynCre^+Pank1^−/−Pank2^−/− mice both weigh less and eat less than wild-type mice. […] At the end of the dark cycle, individual mice were placed in an open rectangular arena (36.8 cm×43.2 cm) for 5 min during the light cycle and motor activity was evaluated using a video tracking system provided by HVS Image with associated 2100 Plus software (San Diego, CA, USA). Each animal was placed in the center of the arena under standard overhead lighting and the total distance traveled and the percentage of time in motion were recorded. The behaviors of age-matched control animals, treated with Compound (I) and untreated, were quantified and compared. […] Liver, forebrain and hindbrain were quickly excised, approximately 30-50 mg pieces were immediately flash frozen in liquid N2 and stored frozen at −80° C. until analysis. The plasma and tissue samples were used for Compound (I) and total CoA determinations.
Following analysis of movement, all animals were sacrificed at postnatal Day 45 for examination of tissue CoA levels.

In data set [2] the test system is Pcca^−/−PCCA(A138T)^tg/0 mice. Description: Acyl-CoA in liver, brain and heart of Pcca−/−PCCA(A138T)tg/0 mice. Type of data set: in vivo. The settings on record: 22.5 ppm (3 mg/kg) in chow for 30 days after weaning. Here is the method: (§2) Water was supplied ad libitum.
Acyl-CoA Measurements by Mass Spectrometry: Acyl-CoAs were quantified as described by Sharma et al., Nat. Commun. 2018; 9:4399. Briefly, 30-40 mg of tissue was homogenized in 2 mL methanol and 1 mL water and incubated on ice for 30 minutes. 1.5 mL of chloroform and 1.2 mL of water was added to remove the lipids. The aqueous top layer was collected and 30 pmol of [13C]acetyl-CoA (Sigma) was added and dried overnight in a speedvac.
Mass spectrometry of the acyl-CoA distribution was performed using a Finnigan TSQ Quantum (Thermo Electron) triple-quadrupole mass spectrometer. The instrument was operated in positive mode using single ion monitoring (SIM) neutral loss scanning corresponding to the loss of the phosphoadenosine diphosphate from CoA species. The ion source parameters were as follows: spray voltage, 4,000 V; capillary temperature, 250° C.; capillary offset, −35 V; sheath gas pressure, 10; auxiliary gas pressure, 5; and tube lens offset was set by infusion of the polytyrosine tuning and calibration in electrospray mode. Acquisition parameters were as follows: scan time, 0.5 s; collision energy, 30 V; peak width Q1 and Q3, 0.7 FWHM; Q2 CID gas, 0.5 mTorr; source CID, 10 V; neutral loss, 507.0 m/z; SIM mass of 810 m/z with a scan width of 8 m/z to capture the signal from cellular acetyl-CoA and the [13C]acetyl-CoA internal standard.

The conditions of data set [3]: 60 mg, fed vs fasted.
Experimental: All subjects will receive 2 doses of study drug in a crossover manner, separated by a washout period of 7 days or 5 half-lives up to 21 days (whichever is longer).
Study drug will then be administered along with a standardized high-calorie (approximately 800 to 1000 calories) breakfast. The meal will be ingested entirely within 30 minutes, and study drug will be administered 30 minutes after the start of the meal.
The nature of data set [4]: in vivo. The settings on record: monkey.
For data set [5], the system named is SynCre^+Pank1^−/−Pank2^−/− mice. Description: Neurometabolites by 1H MRS in SynCre+Pank1−/−Pank2−/− mice. Type of data set: in vivo. The settings on record: 10 mg/kg/day (75 ppm) in chow; midbrain 1H MRS at P45; normalized to total creatine; mean ± SD. Here is the method:
The ^1H MRS studies were performed on a Bruker Clinscan 7T magnetic resonance imaging (MRI) scanner (Bruker BioSpin MRI GmbH, Ettlingen, Germany). Mice were anesthetized using isoflurane mixed with oxygen (1-2%) and the respiration rate was monitored. Each MRI was acquired with a mouse brain surface receive coil positioned over the mouse head and placed inside a 72 mm transmit/receive coil. After the localizer, a T2-weighted turbo spin echo sequence was performed in the coronal (TR/TE=2290/41 ms, matrix size=192×256, slice thickness 0.5 mm, number of slices=14) and axial (TR/TE=3841/50 ms, matrix size=192×144, slice thickness 0.4 mm, number of slices=42) orientations. The T2-weighted scans were used to position a 3.5×4.5×2.0 mm^3 voxel for spectroscopy in the midbrain to cover thalamus and hippocampus. […] The in vivo ^1H MRS data were quantified as the Metabolite to tCr ratio using LCModel software (v.6.3), a widely applied MRS analysis tool that employs a least-squares-based prior-knowledge fitting program. The concentration of metabolites was measured using the unsuppressed water peak as a concentration standard. […]
Data analysis: Statistical significance (p values) was determined using a two-tailed Student's t test using GraphPad software. The MRS parameters were analyzed using ‘R’ 4.0.2 and the mean values and standard deviations were calculated for each group of mice. […]

Data set [6] concerns Pank1,2 neural knockout mice. Description: Total forebrain CoA in Pank1,2 neural knockout mice. Type of data set: in vivo. Conditions: 75 ppm in chow from postnatal day 14; assessed at postnatal day 45.
Text: as §1
Statistical significance was determined using a two-tailed Student's t test (GraphPad software) and P-values are shown about the bars, N=6-8. […]

Data set [7] has as its system Pcca^−/−PCCA(A138T)^tg/0 mice. The data set is described as follows: Plasma and urine metabolites (TCA cycle intermediates) in Pcca−/−PCCA(A138T)tg/0 mice. Conditions: 22.5 ppm (3 mg/kg) in chow. The class given is in vivo.
Experimental: The mice were maintained at 72′±2° F., humidity 50%±10% and a 14-hour light/10-hour dark cycle with the dark cycle starting at 20:00 hrs. Water was supplied ad libitum. The mice were randomized into the treatment arms to achieve a normal weight distribution. […] Blood was collected in ethylenediaminetetraacetic acid (EDTA) at P50 by cardiac puncture from isoflurane-anesthetized animals, plasma was prepared and stored frozen at −80° C. until analysis. Liver, brain, and heart were quickly excised, immediately flash frozen in liquid nitrogen and stored frozen at −80° C. until analysis.
Metabolites from Urine and Plasma: Water was added to thawed 24-hr urine samples to a final volume of 1 mL for each mouse. To 100 μL of urine or 20 μL of plasma, warfarin standard was added at a final concentration of 0.2 μM and the sample was incubated at −80° C. for 1 hour. The sample was centrifuged at 6000×g for 10 minutes to remove precipitants and the supernatant was analyzed by LC/MS/MS. Analysis was performed using a Shimadzu Prominence UFLC attached to a QTrap 4500 equipped with a Turbo V ion source (Sciex). […] The system was controlled by the Analyst® software (Sciex) and analyzed with MultiQuant™ 3.0.2 software (Sciex). The relative amount of metabolite was normalized to the amount of warfarin then the ratio to creatinine was calculated.
For data set [8] the following is noted: dog, in vivo.
The conditions of data set [9]: 22.5 ppm (3 mg/kg) in chow for 30 days after weaning.
Experimental: The mice were maintained at 72′±2° F., humidity 50%±10% and a 14-hour light/10-hour dark cycle with the dark cycle starting at 20:00 hrs. Water was supplied ad libitum. The mice were randomized into the treatment arms to achieve a normal weight distribution. […] However, this is merely an approximation, as Pcca^−/−PCCA(A138T)^tg/0 mice weigh less but also eat less than wild-type mice. […] Blood was collected in ethylenediaminetetraacetic acid (EDTA) at P50 by cardiac puncture from isoflurane-anesthetized animals, plasma was prepared and stored frozen at −80° C. until analysis. Liver, brain, and heart were quickly excised, immediately flash frozen in liquid nitrogen and stored frozen at −80° C. until analysis.
The samples were incubated on ice for 30 min. Samples were spun at 3500×g for 10 min to pellet debris, and the supernatant was transferred to a glass vial. […] 30 mg of tissue was homogenized in 2 mL of 80% methanol containing 0.1 μM warfarin and incubated at −80° C. for 4 hr. Samples were spun at 3500×g for 10 min to pellet debris, supernatant was transferred to a glass tube and dried down using a Savant SPD1010 Speed-Vac (Thermo Scientific) overnight. Samples were resuspended in 400 μL of 80% acetonitrile to a final concentration of 0.5 μM and transferred to a glass vial. […]
Data set [10] is described as follows: in vivo. The settings on record: mouse, rat, dog, monkey, iv.
The test system of data set [11] is Pcca^−/−PCCA(A138T)^tg/0 mice. Description: Survival of Pcca−/−PCCA(A138T)tg/0 mice. The class given is in vivo. The settings on record: 22.5 ppm (3 mg/kg) in chow; untreated ~51%.
Text: as §2
At postnatal day 90, the probability of survival of Pcca^−/−PCCA(A138T)^tg/0 mice was ˜51%.

Data set [12] in a line: in vivo. The settings on record: rat.

Take `O=C(Cc1ccc(C2CC2)c(F)c1)N1CCN(c2ccc(Cl)nn2)CC1` [Compound (I), 1-(4-(6-chloropyridazin-3-yl)piperazin-1-yl)-2-(4-cyclopropyl-3-fluorophenyl)ethan-1-one]: the “Body weight gain compared with untreated mice” value in [1] is “significantly increased”. For the same compound, the “C2-CoA in liver, brain and heart” value in data set [2] was “rescued to wild-type levels”. In data set [3], the “Delay of absorption by food” value is around 2 h and the “Increase in plasma exposure with food” value was around 1.3 fold. Moreover, the clearance in “in vivo [4]” (iv) was determined as 19.7 mL/min/kg. This compound also registered a bioavailability in the data set “in vivo [4]” (po) of 17.6%. For the same compound, the “GABA (GABA/tCr)” value in data set [5] stood at 0.40 ± 0.02. The “Increase of forebrain CoA levels vs untreated mice” value in [6] was around 70%. The “Levels of methylcitrate, methylmalonate and α-ketoglutarate in plasma” value in [7] is reported as “reduced”. Also, the “Accumulation after multiple doses” value in [8] is “Less than 2 fold”. Also, in [9], the “Distribution of Compound (I) into liver, brain and heart” value is “well distributed into the liver, and to a lesser extent in brain and heart”; the “Exposure in female mice versus males” value was “higher exposures than males”. The same compound gave a half-life in “in vivo [10]” of 1 to 3 h. The “Probability of survival at postnatal day 90” value in data set [11] was around 94%. For the same compound, the clearance in the data set “in vivo [12]” (iv) was 32.6 mL/min/kg. Moreover, the bioavailability in “in vivo [12]” (po) is 35.2%.
